The values below come from US20230053688A1, “METHODS TO ALTER LATENCY IN EBV+ MALIGNANCIES” (Cornell University, priority 2020, published 2023).

Structures can show the parent of a compound that is named as a salt. Where two headings read alike, the source gives them in different places.

This test relates to LMP1 expression in Kem I cells. The test is described as follows: microbe, parasite or virus in culture. The format is cell-based, EBV. Conditions: for fold induction at 2.5 µM / fold induction at 1 µM: human gammaherpesvirus 4, 48 h.
Setting [1] is: read-out: Average LMP1 Fold Increase, Kem I cells, 2.5 uM, 48 hours, average of replicates 1 and 2.
Setting [2] is: read-out: Replicate 1-LMP1 Fold Increase, Kem I cells, 2.5 uM, 48 hours, fold change in LMP1 transcript vs vehicle.
Where [3] appears, read: read-out: Replicate 2-LMP1 Fold Increase, Kem I cells, 2.5 uM, 48 hours, fold change in LMP1 transcript vs vehicle.
Setting [4] is: Kem I cells, 2.5 uM, 48 hours, average of replicates 1 and 2.
Where [5] appears, read: Kem I cells, 2.5 uM, 48 hours, fold change in LMP1 transcript vs vehicle.

Regarding `CC(C)CC(=O)Nc1[nH]nc2c1CN(C(=O)C1CCN(C)CC1)C2(C)C` [PHA-793887], the fold induction at 2.5 µM runs as follows: under setting [1], 2.82; under setting [2], 0.58; under setting [3], 5.05.

For the molecule `COc1cc(OC)c(NC(=O)Nc2cc(C)on2)cc1Cl` [PNU-120596], under setting [4], the “Average LMP1 Fold Increase” value is recorded as 0.30. For the same molecule, under setting [5], the “Replicate 1-LMP1 Fold Increase” value turned out to be 0.17 and the “Replicate 2-LMP1 Fold Increase” value is on record as 0.44.

As for `CC(C)(C)n1nc(-c2ccc(Cl)cc2)c2c(N)ncnc21` [PP2], the “Average LMP1 Fold Increase” value under setting [4] was 1.01. For the same molecule, under setting [5], the “Replicate 1-LMP1 Fold Increase” value is given as 0.73 and the “Replicate 2-LMP1 Fold Increase” value was 1.28.

With `N#CSc1cc(SC#N)c(N)nc1N` [PR-619], the “Average LMP1 Fold Increase” value under setting [4] stood at 0.31. Under setting [5], the “Replicate 1-LMP1 Fold Increase” value is 0.23 and the “Replicate 2-LMP1 Fold Increase” value is recorded as 0.39.

As to `Cl.NC(=O)c1cnc(N[C@@H]2CCCC[C@@H]2N)nc1Nc1cccc(-n2nccn2)c1` [PRT062607(P505-15, BIIB057) HCl], the “Average LMP1 Fold Increase” value under setting [4] is on record as 0.54. Also, under setting [5], the “Replicate 1-LMP1 Fold Increase” value was determined as 0.25 and the “Replicate 2-LMP1 Fold Increase” value came out at 0.83.

As to `COc1cc(Br)c(Nc2nc(-c3c(C)nc4ncccn34)cs2)c(Br)c1` [PTC-209], the “Average LMP1 Fold Increase” value was 0.90, the “Replicate 1-LMP1 Fold Increase” value was 0.34 and the “Replicate 2-LMP1 Fold Increase” value turned out to be 1.46.

Consider `CC(C)NCCCn1c(Sc2cc3c(cc2I)OCO3)nc2c(N)ncnc21` [PU-H71], for which the fold induction at 1 µM was found to be 9.03 (read-out: Average LMP1 Fold Increase, Kem I cells, 1 uM, 48 hours, average of replicates 1 and 2); 15.3 (read-out: Replicate 1-LMP1 Fold Increase, Kem I cells, 1 uM, 48 hours, fold change in LMP1 transcript vs vehicle); 2.79 (read-out: Replicate 2-LMP1 Fold Increase, Kem I cells, 1 uM, 48 hours, fold change in LMP1 transcript vs vehicle).

In the case of `CCOC(=O)c1ccc(N2NC(=O)/C(=C/c3ccc([N+](=O)[O-])o3)C2=O)cc1` [PYR-41], the “Average LMP1 Fold Increase” value under setting [4] is listed as 0.49. Moreover, under setting [5], the “Replicate 1-LMP1 Fold Increase” value came to 0.50 and the “Replicate 2-LMP1 Fold Increase” value is on record as 0.49.

With `C1=N/C2=N/c3ccc(OCCN4CCCC4)c(c3)COC/C=C/COCc3cccc(c3)C(=C1)N2` [Pacritinib (SB1518)], the “Average LMP1 Fold Increase” value under setting [4] came out at 0.37. In addition, under setting [5], the “Replicate 1-LMP1 Fold Increase” value was 0.24 and the “Replicate 2-LMP1 Fold Increase” value is 0.49.

In the case of `CC(=O)c1c(C)c2cnc(Nc3ccc(N4CCNCC4)cn3)nc2n(C2CCCC2)c1=O.Cl` [Palbociclib (PD-0332991) HCl], the “Average LMP1 Fold Increase” value under setting [4] was 1.34. Also, under setting [5], the “Replicate 1-LMP1 Fold Increase” value was 0.77 and the “Replicate 2-LMP1 Fold Increase” value was found to be 1.91.

For the molecule `CC(=O)O[C@H]1C[C@@H]2CC[C@@H]3[C@H](CC[C@@]4(C)[C@H]3C[C@H]([N+]3(C)CCCCC3)[C@@H]4OC(C)=O)[C@@]2(C)C[C@@H]1[N+]1(C)CCCCC1.[Br-].[Br-]` [Pancuronium dibromide], under setting [4], the “Average LMP1 Fold Increase” value came out at 0.28. In addition, under setting [5], the “Replicate 1-LMP1 Fold Increase” value came out at 0.25 and the “Replicate 2-LMP1 Fold Increase” value is recorded as 0.31.

For `Cc1[nH]c2ccccc2c1CCNCc1ccc(/C=C/C(=O)NO)cc1` [Panobinostat (LBH589)], the “Average LMP1 Fold Increase” value under setting [4] is recorded as 383.26. In addition, under setting [5], the “Replicate 1-LMP1 Fold Increase” value worked out at 451.65 and the “Replicate 2-LMP1 Fold Increase” value was found to be 314.88.

Take `Oc1cc(O)cc(/C=C/c2ccc(O)c(O)c2)c1` [Piceatannol]: the fold induction at 2.5 µM reads like this: under setting [1], 0.75; under setting [2], 0.83; under setting [3], 0.66.

With `COc1ccc(-c2nc3ccc(C4=NNC(=O)CC4C)cc3[nH]2)cc1` (stereo not drawn) [Pimobendan], the fold induction at 2.5 µM is, setting by setting: under setting [1], 0.87; under setting [2], 1.11; under setting [3], 0.64.

Regarding `O=C(NNc1ccccc1)c1ccncc1` [PluriSln #1 (NSC 14613)], the “Average LMP1 Fold Increase” value under setting [4] amounted to 1.32. Further, under setting [5], the “Replicate 1-LMP1 Fold Increase” value worked out at 1.70 and the “Replicate 2-LMP1 Fold Increase” value is listed as 0.94.

Turning to `Nc1cccc2c1C(=O)N(C1CCC(=O)NC1=O)C2=O` (stereo not drawn) [Pomalidomide], the fold induction at 2.5 µM by setting is: under setting [1], 5.8; under setting [2], 3.72; under setting [3], 7.87.

As to `C#CCC(Cc1cnc2nc(N)nc(N)c2n1)c1ccc(C(=O)N[C@@H](CCC(=O)O)C(=O)O)cc1` (stereo partly drawn) [Pralatrexate], the fold induction at 2.5 µM is, setting by setting: under setting [1], 3.49; under setting [2], 3.95; under setting [3], 3.02.

For the molecule `CCCN[C@H]1CCc2nc(N)sc2C1` [Pramipexole], the fold induction at 2.5 µM under setting [1] is 0.93, the fold induction at 2.5 µM under setting [2] came out at 0.6 and the fold induction at 2.5 µM under setting [3] came out at 1.27.

For `CCc1nc(N)nc(N)c1-c1ccc(Cl)cc1` [Pyrimethamine], the fold induction at 2.5 µM reads like this: under setting [1], 0.8; under setting [2], 0.7; under setting [3], 0.9.

For the molecule `CC(C)(C)c1cc(NC(=O)Nc2ccc(-c3cn4c(n3)sc3cc(OCCN5CCOCC5)ccc34)cc2)no1` [Quizartinib (AC220)], under setting [4], the “Average LMP1 Fold Increase” value was 0.93. For the same molecule, under setting [5], the “Replicate 1-LMP1 Fold Increase” value turned out to be 0.71 and the “Replicate 2-LMP1 Fold Increase” value was 1.15.

Consider `O=C(NCc1cccc(O)c1)Nc1nc(-c2ccncc2)cs1` [RKI-1447], for which the “Average LMP1 Fold Increase” value under setting [4] is 0.54. Under setting [5], the “Replicate 1-LMP1 Fold Increase” value came out at 0.75 and the “Replicate 2-LMP1 Fold Increase” value is on record as 0.33.

On to `Cc1nnc(C(=O)NC(C)(C)c2nc(C(=O)NCc3ccc(F)cc3)c(O)c(=O)n2C)o1` [Raltegravir (MK-0518)], for which the “Average LMP1 Fold Increase” value under setting [4] turned out to be 1.31. Also, under setting [5], the “Replicate 1-LMP1 Fold Increase” value turned out to be 0.59 and the “Replicate 2-LMP1 Fold Increase” value is on record as 2.02.

Regarding `CCC(=O)NCC[C@@H]1CCc2ccc3c(c21)CCO3` [Ramelteon], the fold induction at 2.5 µM under setting [1] was 0.33, the fold induction at 2.5 µM under setting [2] came to 0.45 and the fold induction at 2.5 µM under setting [3] came to 0.22.

For the molecule `CNC(=C[N+](=O)[O-])NCCSCc1ccc(CN(C)C)o1` [Ranitidine], the fold induction at 2.5 µM under setting [1] is 1.04, the fold induction at 2.5 µM under setting [2] came out at 0.9 and the fold induction at 2.5 µM under setting [3] turned out to be 1.18.

Regarding `C#CCN[C@@H]1CCc2ccccc21` [Rasagiline Mesylate], the fold induction at 2.5 µM is, setting by setting: under setting [1], 0.69; under setting [2], 0.86; under setting [3], 0.51.

For the molecule `O=C(NC(Cc1cc(=O)[nH]c2ccccc12)C(=O)O)c1ccc(Cl)cc1` (stereo not drawn) [Rebamipide], the fold induction at 2.5 µM reads like this: under setting [1], 0.85; under setting [2], 0.48; under setting [3], 1.23.

`Cc1cccc(-c2[nH]ncc2-c2ccc3ncccc3n2)n1` [RepSox]: the “Average LMP1 Fold Increase” value stood at 0.64, the “Replicate 1-LMP1 Fold Increase” value stood at 0.96 and the “Replicate 2-LMP1 Fold Increase” value stood at 0.33.

As for `CO[C@H]1C[C@@H]2CC[C@@H](C)[C@@](O)(O2)C(=O)C(=O)N2CCCC[C@H]2C(=O)O[C@H]([C@H](C)C[C@@H]2CC[C@@H](OP(C)(C)=O)[C@H](OC)C2)CC(=O)[C@H](C)/C=C(\C)[C@@H](O)[C@@H](OC)C(=O)[C@H](C)C[C@H](C)/C=C/C=C/C=C/1C` [Ridaforolimus (Deforolimus, MK-8669)], under setting [4], the “Average LMP1 Fold Increase” value is given as 3.37. In addition, under setting [5], the “Replicate 1-LMP1 Fold Increase” value came out at 6.08 and the “Replicate 2-LMP1 Fold Increase” value amounted to 0.67.

Turning to `COc1cc(OC)c(/C=C/S(=O)(=O)Cc2ccc(OC)c(NCC(=O)O)c2)c(OC)c1` [Rigosertib (ON-01910)], under setting [4], the “Average LMP1 Fold Increase” value worked out at 0.57. Also, under setting [5], the “Replicate 1-LMP1 Fold Increase” value stood at 0.69 and the “Replicate 2-LMP1 Fold Increase” value was determined as 0.46.
